Assay results published in patent US9862680B2, “Peripherally substituted monocyclic beta-lactams” (University of Notre Dame du Lac, priority 2016, dated 2018).

Legend:
[1] = tested on: selected β-lactamase enzymes from classes A, B, C and D; experiment: β-lactamase inhibitory activity, results in words; format: biochemical; settings: C and D (Ambler classification)
Protocol: (§1) To the first row of a 2-mL deep 96-well block was added 1 mL of 50 mM sodium phosphate buffer at pH 7 with 0.1 mg/mL BSA (bovine serum albumin). To the first row was added an appropriate amount of a 10 mg/mL solution of the compound to be tested to make a 640 μM (4×) solution. Each of the other wells in the 96-well block were charged with 750 μL of the aforementioned buffer. The rows were then repeatedly diluted 1:3 so that the final concentrations of the individual 96-well plates would range in concentrations from 160 μM to 3 nM (8 dilutions). The master block was then used to add 50 pt to each corresponding well in the 96-well flat-bottom plate. An additional 50 of buffer was added to each well. Once the plates were prepared, 50 μL of the enzyme to be tested against were added in buffer to each well [KPC-2 (0.147 mg/mL), CTX-M-14 (0.102 mg/mL), […] (0.331 mg/mL), AmpC (0.699 mg/mL), SHV-12 (0.111 mg/mL), NDM-1 (0.110 mg/mL)]. The plates were incubated at rt for 10 min before 50 μL. of an appropriate indicator were added to each well and the optical density at 495 nm was measured over time. For each enzyme, other than NDM-1, nitrocefin was used. Nitrocefin (10 μM for SHV-12, 50 μM for the other enzymes), was appropriate because when cleaved by a β-lactamase, the color changes from yellow to red. For NDM-1, imipenem (10 μM) was the indicator of choice. Rather than observe the growing presence of optical density at 495 nm, as with nitrocefin, the disappearance of imipenem was monitored. The inhibition curves were monitored and used to perform enzyme kinetics according to Waley to determine the Ki (μM) of each compound against the β-lactamases screened.

VIM-1 = VIM-1 (Pseudomonas aeruginosa, UniProt A0A0F7KYQ8); experiment: β-lactamase inhibition, Ki by enzyme kinetics; format: biochemical; settings: VIM-1, class B
SHV-12 = molecular target: T1, SHV-12 (Klebsiella pneumoniae, UniProt P0AD64, E235K/G234S/L31Q); experiment: β-lactamase inhibition, Ki by enzyme kinetics (nitrocefin); format: biochemical; settings: SHV-12, class A
T1 construct: host or cells: E. coli
T1 sequence (P0AD64 22-286 L31Q/G234S/E235K): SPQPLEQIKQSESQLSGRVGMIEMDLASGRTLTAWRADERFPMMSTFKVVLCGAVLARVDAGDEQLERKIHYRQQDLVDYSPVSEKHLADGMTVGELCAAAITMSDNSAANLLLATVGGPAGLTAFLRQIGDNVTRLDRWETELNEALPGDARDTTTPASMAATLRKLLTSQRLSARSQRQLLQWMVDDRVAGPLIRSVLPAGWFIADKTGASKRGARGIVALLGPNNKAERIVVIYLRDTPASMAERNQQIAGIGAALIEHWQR
Protocol: (§2) The enzymes KPC-2, Oxa-48, AmpC and NDM-1 were purchased from Emerald Bioscience and the enzymes CTX-14 and SHV-12 were expressed and purified from E. coli at Rempex pharmaceutical (San Diego, Calif.).
as §1

CTX-M-14 = molecular target: T2, CTX-M-14 (Escherichia coli, UniProt Q9L5C7); experiment: as above; format: biochemical; settings: CTX-M-14, class A
T2 construct: host or cells: E. coli
T2 sequence (Q9L5C7 entry or part of it): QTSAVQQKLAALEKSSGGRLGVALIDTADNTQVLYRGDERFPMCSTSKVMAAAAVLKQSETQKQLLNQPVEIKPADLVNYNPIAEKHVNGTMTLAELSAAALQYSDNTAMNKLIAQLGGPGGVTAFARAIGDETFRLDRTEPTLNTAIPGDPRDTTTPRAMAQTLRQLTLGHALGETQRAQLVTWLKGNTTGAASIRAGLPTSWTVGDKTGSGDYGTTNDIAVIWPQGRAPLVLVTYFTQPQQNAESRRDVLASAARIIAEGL
Protocol: as §2, §1

Oxa-48 = molecular target: T3, Oxa-48 (Klebsiella pneumoniae, UniProt Q6XEC0); experiment: as above; format: biochemical; settings: Oxa-48, class D
T3 construct: purchased Emerald Bioscience
T3 sequence (Q6XEC0 23-265 limits assumed): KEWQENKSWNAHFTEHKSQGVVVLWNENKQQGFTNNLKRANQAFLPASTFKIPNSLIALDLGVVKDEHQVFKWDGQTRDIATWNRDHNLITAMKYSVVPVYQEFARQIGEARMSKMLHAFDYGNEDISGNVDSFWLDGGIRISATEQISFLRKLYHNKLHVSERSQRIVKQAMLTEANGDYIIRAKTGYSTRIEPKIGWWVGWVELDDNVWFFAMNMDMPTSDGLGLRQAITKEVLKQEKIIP
Protocol: as §2, §1

AmpC = experiment: as above; format: biochemical; settings: class C
Protocol: as §2, §1

KPC-2 = molecular target: T4, KPC-2 (Klebsiella pneumoniae, UniProt Q9F663); experiment: as above; format: biochemical; settings: KPC-2, class A
T4 construct: purchased Emerald Bioscience
T4 sequence (Q9F663 25-293 limits assumed): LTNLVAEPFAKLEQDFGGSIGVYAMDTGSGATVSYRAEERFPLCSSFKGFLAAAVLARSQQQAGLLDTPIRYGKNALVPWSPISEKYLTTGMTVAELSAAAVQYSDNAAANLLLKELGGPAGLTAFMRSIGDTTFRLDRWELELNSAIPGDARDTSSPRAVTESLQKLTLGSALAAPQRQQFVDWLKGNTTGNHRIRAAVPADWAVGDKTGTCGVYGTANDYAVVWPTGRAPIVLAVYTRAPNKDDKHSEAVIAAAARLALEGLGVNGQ
Protocol: as §2, §1

B. Dolosa AU 0018 = experiment: Agar diffusion assay (modified Kirby-Bauer); format: cell-based; settings: 2 mM solution, 50 μL in 9.0 mm well, P unclear, V very unclear zone, * slightly misshapen zone; for zone of inhibition at 2000 µM: Burkholderia dolosa, read-out: Zone of Growth Inhibition
Protocol: (§3) Antibacterial activity of the compounds was determined by a modified Kirby-Bauer^27-28 agar-diffusion assay. Overnight cultures of test organisms were grown in LB broth for 18-24h and standard suspensions of […] were prepared in saline solution (0.9% NaCl) according to a 0.5 BaSO4 McFarland Standard. This standardized suspension (0.1 mL) was added to 34 mL of sterile, Mueller Hinton No. 2 agar tempered to 47-50° C. After gentle mixing, the inoculated agar media was poured into a sterile plastic petri dish (145 mm×20 mm) and allowed to solidify near a flame with the lid cracked for 30 min. Wells of 9.0 mm diameter were cut from the petri dish agar and filled with exactly 50 μL of the test sample solution. For studies using mixtures of compounds, both test compounds were diluted to equal concentrations and 50 μL of the mixed compound solution was added to the cut well. The petri dish was incubated at 37° C. for 18-24 h and the inhibition zone diameters were measured (mm) with an electronic caliper after 24-48 h.
(§4) All compound-containing solutions were prepared by first making a 20 mM solution of the compound in DMSO and then diluting that solution 10-fold with MeOH to give the final 2 mM solution used in the assay.
(§5) Plates were incubated after inoculation at 37° C. for 20 hours. Plates were photographed after 1 day. M. vaccae required a longer incubation time, 48 hours, and was photographed after 3 days.

A. Baumannii ATCC 17961 = experiment: Agar diffusion assay (modified Kirby-Bauer); format: cell-based; settings: 2 mM solution, 50 μL in 9.0 mm well, P unclear, V very unclear zone, * slightly misshapen zone
Protocol: as §3, §4, §5

P. Aeruginosa K799/61 = experiment: Agar diffusion assay (modified Kirby-Bauer); format: cell-based; settings: for Zone of Growth Inhibition: P. Aeruginosa K799/61 (permeability mutant), 2 mM solution, 50 μL in 9.0 mm well, P unclear, V very unclear zone, * slightly misshapen zone
Protocol: as §3, §4, §5

E. Coli DC0 = experiment: Agar diffusion assay (modified Kirby-Bauer); format: cell-based; settings: 2 mM solution, 50 μL in 9.0 mm well, P unclear, V very unclear zone, * slightly misshapen zone
Protocol: as §3, §4, §5

E. Coli DC2 = experiment: Agar diffusion assay (modified Kirby-Bauer); format: cell-based
Protocol: as §3, §4, §5

P. Aeruginosa K799/wt = experiment: Agar diffusion assay (modified Kirby-Bauer); format: cell-based; settings: P. Aeruginosa K799/wt (wild type), 2 mM solution, 50 μL in 9.0 mm well, P unclear, V very unclear zone, * slightly misshapen zone
Protocol: as §3, §4, §5

S. Aureus SG511 = experiment: Agar diffusion assay (modified Kirby-Bauer); format: cell-based; settings: 2 mM solution, 50 μL in 9.0 mm well, P unclear, V very unclear zone, * slightly misshapen zone; for zone of inhibition at 2000 µM: Staphylococcus aureus, read-out: Zone of Growth Inhibition
Protocol: as §3, §4, §5

PAM 2035 = experiment: β-lactamase inhibition, Ki by enzyme kinetics; format: biochemical; settings: PAM 2035, class C
NDM-1 = molecular target: T5, NDM-1 (Klebsiella pneumoniae, UniProt C7C422); experiment: β-lactamase inhibition, Ki by enzyme kinetics (imipenem); format: biochemical; settings: NDM-1, class B
T5 construct: purchased Emerald Bioscience
T5 sequence (C7C422 29-270 limits assumed): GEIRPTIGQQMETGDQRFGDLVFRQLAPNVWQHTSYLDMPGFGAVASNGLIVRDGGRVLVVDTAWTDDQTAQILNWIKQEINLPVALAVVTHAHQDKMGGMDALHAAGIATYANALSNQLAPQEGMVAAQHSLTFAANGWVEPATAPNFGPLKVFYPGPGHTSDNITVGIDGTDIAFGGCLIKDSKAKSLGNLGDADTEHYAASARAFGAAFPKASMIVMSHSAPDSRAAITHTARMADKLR
Protocol: as §2, §1

M. Vaccae IMET 10670 = experiment: Agar diffusion assay (modified Kirby-Bauer); format: cell-based; settings: 2 mM solution, 50 μL in 9.0 mm well, 48 hours incubation, P unclear, V very unclear zone, * slightly misshapen zone
Protocol: as §3, §4, §5

M. Luteus ATCC 10240 = experiment: Agar diffusion assay (modified Kirby-Bauer); format: cell-based; settings: M. Luteus ATCC 10240, 2 mM solution, 50 μL in 9.0 mm well, P unclear, V very unclear zone, * slightly misshapen zone
Protocol: as §3, §4, §5

B. Subtilis ATCC 6633 = experiment: Agar diffusion assay (modified Kirby-Bauer); format: cell-based; settings: 2 mM solution, 50 μL in 9.0 mm well, P unclear, V very unclear zone, * slightly misshapen zone
Protocol: as §3, §4, §5

[2] = tested on: panel of Gram-positive and Gram-negative bacteria; experiment: Kirby-Bauer agar diffusion assays, results in words; format: cell-based
Protocol: as §3, §4, §5

[3] = tested on: panel of Gram-positive and Gram-negative bacteria; experiment: MIC determination; format: cell-based; settings: same panel of Gram-positive and Gram-negative bacteria, all values
[4] = E. Coli DC2, 2 mM solution, 50 μL in 9.0 mm well, P unclear, V very unclear zone, * slightly misshapen zone
[5] = Pseudomonas aeruginosa, read-out: Zone of Growth Inhibition

Compound | β-lactamase inhibitory activity, selectivity [1] | Ki (VIM-1) [µM] | Ki (SHV-12) [µM] | Ki (CTX-M-14) [µM] | Ki (Oxa-48) [µM] | Ki (AmpC) [µM] | Ki (KPC-2) [µM] | Zone of Growth Inhibition (B. Dolosa AU 0018) [mm] | Zone of Growth Inhibition (A. Baumannii ATCC 17961) | Zone of Growth Inhibition (P. Aeruginosa K799/61) | Zone of Growth Inhibition (E. Coli DC0) | Zone of Growth Inhibition (E. Coli DC2; [4]) [mm] | Zone of Growth Inhibition (P. Aeruginosa K799/wt) | Zone of Growth Inhibition (S. Aureus SG511) | Ki (PAM 2035) [µM] | Ki (NDM-1) [µM] | zone of inhibition at 2000 µM (B. Dolosa AU 0018) [mm] | zone of inhibition at 2000 µM (S. Aureus SG511) [mm] | Zone of Growth Inhibition (B. Subtilis ATCC 6633) | MIC [3] [µM] | further results
O=C1CC(CBr)N1OS(=O)(=O)c1ccc2ccccc2c1 (centres unmarked) [Compound 61c] | active only against the class A enzyme SHV-12 | > 160 | 0.19 | > 160 | > 160 | > 160 | > 160 | 0 | 0 mm | 0 mm | 0 mm | 0 | 0 mm | 15 mm | > 160 | > 160 | – | – | – | – | –
CC(C)(C)OC(=O)NCCSC[C@@H]1NC(=O)[C@H]1NC(=O)OCC1c2ccccc2-c2ccccc21 [Compound 41] | – | – | – | – | – | – | – | – | 13P | 16P | 15V | – | 15P | – | – | – | 0 | 0 | 13P | > 50 | zone of inhibition at 2000 µM (E. Coli DC2; Escherichia coli, E. Coli DC2, 2 mM solution, 50 μL in 9.0 mm well, P unclear, V very unclear zone, * slightly misshapen zone, read-out: Zone of Growth Inhibition): 0 mm; Zone of Growth Inhibition (M. Vaccae IMET 10670): 17V; zone of inhibition at 2000 µM (M. Luteus ATCC 10240; Micrococcus luteus, ATCC10240, read-out: Zone of Growth Inhibition): 0 mm; antibacterial activity ([2]; E. coli strains DC0 and DC2): only active against the permeability mutant DC0; antibacterial activity ([2]; P. aeruginosa, both the wild type (K799/0 wt) and the permeability mutant (K799/61)): showed activity; antibacterial activity ([2]; against B. subtilis and M. vaccae, A. baumannii, P. aeruginosa and E. coli): moderate activity
CO/N=C(\C(=O)N[C@@H]1C(=O)N(S(=O)(=O)[O-])[C@H]1CSCCN)c1cnc(N)s1.[K+] [Compound 44] | – | – | – | – | – | – | – | – | – | – | – | – | – | – | – | – | 0 | 0 | 16V | > 50 | zone of inhibition at 2000 µM (P. Aeruginosa K799/61; [5]): 14 mm; zone of inhibition at 2000 µM (E. Coli DC0; Escherichia coli, read-out: Zone of Growth Inhibition): 23 mm; antibacterial activity (E. Coli DC2; against E. coli DC2, called wild type in the text): active; zone of inhibition at 2000 µM (M. Vaccae IMET 10670; Mycolicibacterium vaccae, read-out: Zone of Growth Inhibition): 0 mm; zone of inhibition at 2000 µM (P. Aeruginosa K799/wt; [5]): 0 mm; Zone of Growth Inhibition (M. Luteus ATCC 10240): 14 s; antibacterial activity ([2]; against B. subtilis, M. luteus, A. baumannii and the permeability mutant strains of P. aeruginosa and E. coli): moderately active
O=C1CC(CBr)N1OS(=O)(=O)c1cccc2ccccc12 (centres unmarked) [Compound 61b] | inhibited enzymes from both classes A and D | – | 0.198 | > 160 | 4.67 | > 160 | > 160 | 0 | 0 mm | 0 mm | 0 mm | 0 | 0 mm | 14P | > 160 | > 160 | – | – | 12 mm | – | –
O=C1CC(CBr)N1OS(=O)(=O)/C=C/c1ccccc1 (centres unmarked) [Compound 61a] | inhibited enzymes from both classes A and D | > 160 | 0.779 | 0.149 | 1.48 | > 160 | 19.3 | 0 | 0 mm | 0 mm | 0 mm | 0 | 0 mm | – | > 160 | > 160 | – | – | 15* mm | – | Zone of Growth Inhibition (M. Luteus ATCC 10240): 17 mm
